# Measured values published in patent US20210163964A1, “ENGINEERED STREPTOMYCES ALBUS STRAINS” (University of Florida Research Foundation, Incorporated, priority 2018, published 2021).
# Tested on: S. albus J1074 and the Δpfk-derivative strain
# Experiment: Diamide sensitivity disc assay
# Assay type: cell-based, Streptomyces albus J1074
# Details: 100 mM diamide disc; ΔpfkSA mutant relative to wild type S. albus J1074; R5A plates, 30° C., 24 h
# Method: Lawns of S. albus J1074 wild-type and Δpfk mutant were generated by overlaying R5A plates (sucrose 100 g/l, K2SO4 0.25 g/l, MgCl2 10.12 g/l, glucose 10 g/l, Casamino acids 0.1 g/l, yeast extract 5 g/l, MOPS 21 g/l, NAOH 2 g/l, R2YE trace elements 2 ml/l, 15 g/L agar) with 3 ml soft Nutrient Agar containing 10^7 fresh spores. Immediately after plating, paper discs soaked in 100 mM diamide were added and plates were incubated at 30° C. for 24 h.
smiles,measurement,value
CN(C)C(=O)/N=N/C(=O)N(C)C [diamide],sensitivity to diamide (halo around disc),less sensitive
